Assay results taken from ChEMBL document CHEMBL1138665, “Probing the activity differences of simple and complex brominated aryl compounds against 15-soybean, 15-human, and 12-human lipoxygenase” (J Med Chem, 2004).

Molecular target: T1, Polyunsaturated fatty acid lipoxygenase ALOX15 (Homo sapiens, UniProt P16050)
T1 sequence (P16050 whole entry): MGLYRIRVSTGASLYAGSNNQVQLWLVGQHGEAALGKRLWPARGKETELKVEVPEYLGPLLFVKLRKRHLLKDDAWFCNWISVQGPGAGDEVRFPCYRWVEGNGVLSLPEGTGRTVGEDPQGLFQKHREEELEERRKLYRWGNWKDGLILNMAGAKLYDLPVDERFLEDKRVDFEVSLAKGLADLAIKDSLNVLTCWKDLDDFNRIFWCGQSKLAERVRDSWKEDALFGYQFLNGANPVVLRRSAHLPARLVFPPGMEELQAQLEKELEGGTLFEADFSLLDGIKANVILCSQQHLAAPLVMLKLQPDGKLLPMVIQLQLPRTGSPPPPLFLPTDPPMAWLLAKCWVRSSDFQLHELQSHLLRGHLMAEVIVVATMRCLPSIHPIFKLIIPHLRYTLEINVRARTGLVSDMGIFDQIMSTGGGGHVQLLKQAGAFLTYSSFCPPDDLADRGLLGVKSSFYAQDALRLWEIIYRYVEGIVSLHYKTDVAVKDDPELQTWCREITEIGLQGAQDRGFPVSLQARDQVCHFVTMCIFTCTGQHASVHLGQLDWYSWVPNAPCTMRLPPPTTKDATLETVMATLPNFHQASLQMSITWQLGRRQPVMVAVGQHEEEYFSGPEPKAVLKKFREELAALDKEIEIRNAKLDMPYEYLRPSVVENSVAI
Assay: Inhibitory effect on human reticulocyte 15-lipoxygenase

| Compound | IC50 [µM] |
| --- | --- |
| Oc1ccccc1Br | > 100 |
| CC(C)(c1ccc(O)c(Br)c1)c1cc(Br)c(O)c(Br)c1 | 5 |
| O=C1N/C=C/c2ccc(c(Br)c2)Oc2cc(cc(Br)c2O)CCNC(=O)/C(=N/O)Cc2ccc(c(Br)c2)Oc2cc(cc(Br)c2O)C/C1=N\O [BASTADIN 7] | 4 |
| CC(C)(c1cc(Br)c(O)c(Br)c1)c1cc(Br)c(O)c(Br)c1 | 4 |
| COc1cc(Br)cc(Br)c1Oc1cc(Br)cc(Br)c1O | 10 |
| O=C(N/C=C/c1ccc(O)c(Br)c1)/C(Cc1cc(Br)c(O)c(Oc2c(Br)cc(C/C(=N\O)C(=O)NCCc3ccc(O)c(Br)c3)cc2Br)c1)=N/O | 2 |
| CCOc1ccc(Br)cc1 | > 100 |
| Oc1cccc(Br)c1 | > 100 |
| Oc1c(Br)c(Br)c(Br)c(Br)c1Oc1ccc(Br)cc1Br | 1.8 |
| Oc1c(Br)cc(Br)cc1Oc1c(O)c(Br)c(Br)c(Br)c1Br | 0.79 |
| Oc1cc(Br)cc2c1Oc1cc(Br)cc(Br)c1O2 [SPONGIADIOXIN C] | 0.8 |
| Oc1c(Br)cc(Br)cc1Oc1c(Br)cc(Br)c(Br)c1O | 2.2 |
| Oc1ccc(Br)cc1 | 55 |
| Oc1c(Br)cc(Br)c(Br)c1Oc1ccc(Br)cc1Br | 5 |
| Oc1c(Br)cccc1Br | > 100 |
| OCc1ccc(Br)cc1 | > 100 |

Molecular target: not listed separately
Assay: Inhibitory effect on soybean 15-lipoxygenase
Parameters: species or system Glycine max

| Compound | IC50 [µM] |
| --- | --- |
| Oc1ccccc1Br | > 100 |
| Oc1ccc(Br)cc1Br | > 100 |
| Oc1cc(Br)c(Br)c2c1Oc1cc(Br)cc(Br)c1O2 [SPONGIADIOXIN A] | > 100 |
| CC(C)(c1ccc(O)c(Br)c1)c1cc(Br)c(O)c(Br)c1 | > 100 |
| O=C1N/C=C/c2ccc(c(Br)c2)Oc2cc(cc(Br)c2O)CCNC(=O)/C(=N/O)Cc2ccc(c(Br)c2)Oc2cc(cc(Br)c2O)C/C1=N\O [BASTADIN 7] | 27 |
| CC(Cc1ccc(O)c(O)c1)[C@H](C)Cc1ccc(O)c(O)c1 (stereo not given in full) | 0.18 |
| CC(C)(c1cc(Br)c(O)c(Br)c1)c1cc(Br)c(O)c(Br)c1 | > 100 |
| COc1cc(Br)cc(Br)c1Oc1cc(Br)cc(Br)c1O | > 100 |
| O=C(N/C=C/c1ccc(O)c(Br)c1)/C(Cc1cc(Br)c(O)c(Oc2c(Br)cc(C/C(=N\O)C(=O)NCCc3ccc(O)c(Br)c3)cc2Br)c1)=N/O | 59 |
| CCOc1ccc(Br)cc1 | > 100 |
| Oc1cccc(Br)c1 | > 100 |
| Oc1c(Br)c(Br)c(Br)c(Br)c1Oc1ccc(Br)cc1Br | 7 |
| Oc1c(Br)cc(Br)cc1Oc1c(O)c(Br)c(Br)c(Br)c1Br | > 100 |
| Oc1cc(Br)cc2c1Oc1cc(Br)cc(Br)c1O2 [SPONGIADIOXIN C] | > 100 |
| Oc1c(Br)cc(Br)cc1Oc1c(Br)cc(Br)c(Br)c1O | > 100 |
| Oc1ccc(Br)cc1Oc1c(O)ccc(Br)c1Br | > 100 |
| Oc1ccc(Br)cc1 | 48 |
| Oc1c(Br)cc(Br)c(Br)c1Oc1ccc(Br)cc1Br | 9 |
| Oc1c(Br)cccc1Br | > 100 |
| OCc1ccc(Br)cc1 | > 100 |

Molecular target: T2, Polyunsaturated fatty acid lipoxygenase ALOX12 (Homo sapiens, UniProt P18054)
T2 sequence (P18054 whole entry): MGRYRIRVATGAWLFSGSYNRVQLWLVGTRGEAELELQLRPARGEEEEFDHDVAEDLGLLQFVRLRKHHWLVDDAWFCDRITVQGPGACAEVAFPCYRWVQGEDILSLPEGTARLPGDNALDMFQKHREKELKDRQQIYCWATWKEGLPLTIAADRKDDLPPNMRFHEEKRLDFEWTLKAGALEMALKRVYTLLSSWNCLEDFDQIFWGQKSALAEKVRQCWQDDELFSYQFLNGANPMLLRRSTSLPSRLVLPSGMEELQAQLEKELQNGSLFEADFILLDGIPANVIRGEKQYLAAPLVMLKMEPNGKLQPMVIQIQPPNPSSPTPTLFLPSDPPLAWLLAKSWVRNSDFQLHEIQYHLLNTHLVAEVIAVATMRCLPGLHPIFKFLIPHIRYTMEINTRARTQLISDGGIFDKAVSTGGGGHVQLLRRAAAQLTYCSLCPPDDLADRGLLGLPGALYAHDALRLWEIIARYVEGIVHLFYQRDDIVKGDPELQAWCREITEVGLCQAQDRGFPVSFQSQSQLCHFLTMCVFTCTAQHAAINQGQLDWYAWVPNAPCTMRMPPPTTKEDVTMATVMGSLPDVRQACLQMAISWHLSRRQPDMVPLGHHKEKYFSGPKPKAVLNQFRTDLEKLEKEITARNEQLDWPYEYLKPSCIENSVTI
Assay: Inhibitory effect on human platelet 12-lipoxygenase

| Compound | IC50 [µM] |
| --- | --- |
| Oc1ccccc1Br | > 100 |
| Oc1ccc(Br)cc1Br | > 100 |
| Oc1cc(Br)c(Br)c2c1Oc1cc(Br)cc(Br)c1O2 [SPONGIADIOXIN A] | 50 |
| CC(C)(c1ccc(O)c(Br)c1)c1cc(Br)c(O)c(Br)c1 | 7 |
| O=C1N/C=C/c2ccc(c(Br)c2)Oc2cc(cc(Br)c2O)CCNC(=O)/C(=N/O)Cc2ccc(c(Br)c2)Oc2cc(cc(Br)c2O)C/C1=N\O [BASTADIN 7] | 2.3 |
| CC(C)(c1cc(Br)c(O)c(Br)c1)c1cc(Br)c(O)c(Br)c1 | 10 |
| COc1cc(Br)cc(Br)c1Oc1cc(Br)cc(Br)c1O | 12 |
| O=C(N/C=C/c1ccc(O)c(Br)c1)/C(Cc1cc(Br)c(O)c(Oc2c(Br)cc(C/C(=N\O)C(=O)NCCc3ccc(O)c(Br)c3)cc2Br)c1)=N/O | 0.4 |
| CCOc1ccc(Br)cc1 | > 100 |
| Oc1cccc(Br)c1 | > 100 |
| Oc1c(Br)c(Br)c(Br)c(Br)c1Oc1ccc(Br)cc1Br | 0.7 |
| Oc1c(Br)cc(Br)cc1Oc1c(O)c(Br)c(Br)c(Br)c1Br | 0.41 |
| Oc1cc(Br)cc2c1Oc1cc(Br)cc(Br)c1O2 [SPONGIADIOXIN C] | 30 |
| Oc1c(Br)cc(Br)cc1Oc1c(Br)cc(Br)c(Br)c1O | 6.2 |
| Oc1ccc(Br)cc1Oc1c(O)ccc(Br)c1Br | 47 |
| Oc1ccc(Br)cc1 | > 100 |
| Oc1c(Br)cc(Br)c(Br)c1Oc1ccc(Br)cc1Br | 6 |
| Oc1c(Br)cccc1Br | > 100 |
| OCc1ccc(Br)cc1 | > 100 |
